In ChEMBL document CHEMBL5726001, “Compounds for use in preparing heterocyclic triazole agonists of the APJ receptor” (2018):

target: T1, Apelin receptor (Homo sapiens, UniProt P35414); assay: [35S]GTPgammaS Binding: The human APJ receptor was cloned by polymerase chain reaction and the gene encoding the receptor was subcloned in pFLAG-CMV-3 expression vector (Sigma, Saint Louis, Mo. USA) in-house at Amgen. A GTPγS binding assay was performed on membranes prepared from CHO cells stably expressing human APJ receptor. The optimum experimental conditions for the concentrations of GDP, MgCl2, and NaCl in the assay buffer were initially determined. The assay was performed in assay buffer [20 mM HEPES, pH 7.5, 5 mM MgCl2, and 0.1% (w/v) BSA with 200 mM NaCl, 3 μM GDP] and membranes expressing human APJ receptor/well along with WGA PS beads. The reaction was initiated by addition of 0.2 nM [35S]GTPγS (Perkin Elmer Life and Analytical Sciences, Waltham USA) in the absence or presence of various ligands and incubated at RT for 90 min. Nonspecific binding was determined in the presence of 100 μM GTPγS and was always less than 0.2% of total binding. All the results presented are means of several independent experiments and analyzed by non-linear regression methods using commercially available program Prism (GraphPad, San Diego, Calif.).
T1 sequence (P35414 whole entry): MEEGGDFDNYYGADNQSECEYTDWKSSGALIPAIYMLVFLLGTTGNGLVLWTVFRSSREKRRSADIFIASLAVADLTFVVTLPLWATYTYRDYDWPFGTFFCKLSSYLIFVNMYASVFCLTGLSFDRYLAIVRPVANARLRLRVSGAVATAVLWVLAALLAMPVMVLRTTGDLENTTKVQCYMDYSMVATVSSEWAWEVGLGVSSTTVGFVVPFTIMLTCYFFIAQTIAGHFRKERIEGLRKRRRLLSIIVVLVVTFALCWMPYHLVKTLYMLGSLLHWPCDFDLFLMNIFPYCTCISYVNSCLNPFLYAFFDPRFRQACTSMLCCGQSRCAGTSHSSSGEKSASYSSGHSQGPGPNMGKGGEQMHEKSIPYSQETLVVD

Compared with COc1ncnc(OC)c1-n1c(NS(=O)(=O)[C@@H](C)[C@H](C)c2ncc(Cl)cn2)nnc1C1COC1, COc1cccc(OC)c1-n1c(NS(=O)(=O)[C@@H](C)[C@@H](OC(C)C)c2ncc(C)cn2)nnc1[C@H]1COCCO1 is 46-fold lower in EC50: 730 nM for the first, 16 nM for the second.

CO[C@H]1CCC[C@@H](OC)[C@@H]1n1c(NS(=O)(=O)[C@@H](C)[C@H](C)c2ncc(C)cn2)nnc1C1CCCO1 (single isomer, unassigned) was tested, and the EC50 was 240 nM.
